Experimental data taken from article PMC8624133, “10th Trends in Medical Mycology Held on 8 to 11 October 2021, Aberdeen, Scotland, Organized by the European Confederation of Medical Mycology (ECMM)” (Journal of Fungi, 2021).
Values after ≈ are worked out from the molar mass of the structure shown. Read-outs that look alike come from different tables or passages of the source.

Assays:
[1] = tested on: nine strains of Candida spp.; assay: CLSI M27-A3 broth microdilution; type: cell-based; details: nine strains
Trichosporon isolates = assay: CLSI broth microdilution; type: cell-based, Trichosporon spp.; details: read-out: GM MIC
C. glabrata = type: cell-based, Candida glabrata
C. albicans [2] = type: cell-based, Candida albicans
Other species of Candida = type: cell-based, Candida spp.
[3] = tested on: Phaeoacremonium parasiticum; assay: Antifungal susceptibility testing; type: cell-based
Experimental: Results: Cultures for bacteria were sterile. Culture on Sabouraud was positive after 5 days of incubation, showing slow growing and initially white colonies. […] Its identification was performed by sequencing the internal transcribed spacer (ITS) region of ribosomal DNA, being the isolate identified as Phaeoacremonium parasiticum (100% homology).

C. krusei = type: cell-based, Candida krusei
C. auris = assay: CLSI M27-A3 broth microdilution; type: cell-based, Candida auris
C. guilliermondii = assay: EUCAST E. Def 7.3.2 microdilution; type: cell-based, Candida guilliermondii; details: n = 62
[4] = tested on: biofilm of filamentous fungi; assay: Biofilm XTT-menadione assay; type: cell-based
Experimental: Materials & Methods: Eight strains are studied: Fusarium solani, Fusarium dimerum, Lomentospora prolificans, Scedosporium apiospermum, Aspergillus flavus, Aspergillus fumigatus and two azole resistant A. fumigatus.
Biofilms were formed after a 90-min adhesion phase followed by the addition of RPMI medium and after a 48 h at 37 °C. Antifungals at different concentrations were added, either after the adhesion phase or after the 48 h of incubation to study their effect on the formation and on the preformed biofilm. After washing, a mixture of XTT-menadione was added to the wells. After 60 min at 37 °C, the OD (optical density) is measured at 450 and 630 nm. An optical microscope observation allows the visualization of elements of the biofilm.

F. verticillioides = assay: Etest susceptibility; type: cell-based, Fusarium verticillioides
[5] = tested on: C. auris clinical strains; assay: organism not typed; type: cell-based, Candida auris; details: range, 78 strains from patients with COVID-19
C. tropicalis = type: cell-based, Candida tropicalis
C. fermentati = assay: EUCAST E. Def 7.3.2 microdilution; type: cell-based, Candida fermentati; details: n = 2
C. albicans [6] = assay: Candidemia Netherlands, MIC distributions against EUCAST ECOFF; type: cell-based, Candida albicans
[7] = tested on: Exophiala phaeomuriformis; assay: MIC, CLSI M27-A3; type: cell-based; details: read-out: MIC values
Outline: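 Isolate recovered from aviation kerosene by 0.22 μm membrane filtration, grown on potato dextrose agar at 30 °C for seven days and identified by ITS sequencing. Susceptibility to clinical antifungals tested per CLSI M27-A3.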

[8] = tested on: Rasamsonia argillacea species complex; assay: Antifungal susceptibility testing; type: cell-based; details: sputum isolate of a CF patient
C. parapsilosis = type: cell-based, Candida parapsilosis
[9] = tested on: A. fumigatus clinical isolates; assay: Susceptibility of clinical isolates from CF patients; details: all 10 clinical isolates
McLDM-F5-CPR = assay: microbe, parasite or virus in culture; type: cell-based, Saccharomyces cerevisiae AD2Δgal; details: Saccharomyces cerevisiae, read-out: mean MIC
[10] = tested on: C. auris Isolate B and Isolate C; assay: microbe, parasite or virus in culture; type: cell-based, Candida auris; details: Isolate C with ERG11 WT in place of K143R
McLDM-F5 = assay: microbe, parasite or virus in culture; type: cell-based, Saccharomyces cerevisiae AD2Δgal; details: Saccharomyces cerevisiae, read-out: mean MIC
[11] = tested on: azole-resistant A. fumigatus SS clinical strains; assay: EUCAST E.DEF 9.3.2; type: cell-based; details: Aspergillus fumigatus
[12] = tested on: C. auris III.8 and TAC1/MRR1 deletion strains; type: cell-based, Candida auris
McLDM-F1-CPR = assay: microbe, parasite or virus in culture; type: cell-based, Saccharomyces cerevisiae AD2Δgal; details: Saccharomyces cerevisiae, read-out: mean MIC
[13] = tested on: A. fumigatus veterinary isolates; assay: EUCAST microdilution of veterinary isolates; type: cell-based, Aspergillus fumigatus
Experimental: All have been confirmed as A. fumigatus by MALDI-TOF MS using the BCCM/IHEM database. The antifungal susceptibility was evaluated using the microdilution EUCAST method. Cyp51A gene sequencing has been performed on all resistant isolates.

A. niger complex = assay: EUCAST E.Def 9.3.2 susceptibility, CPA isolates; type: cell-based, Aspergillus niger complex; details: n = 7, ECOFFs

| SMILES | MIC (Trichosporon isolates) | I (intermediate) isolates, n (%) (C. glabrata) | S (sensitive) isolates, n (%) (C. glabrata) | I (intermediate) isolates, n (%) (C. albicans [2]) | S (sensitive) isolates, n (%) (C. albicans [2]) | I (intermediate) isolates, n (%) (Other species of Candida) | S (sensitive) isolates, n (%) (Other species of Candida) | minimal inhibitory concentrations (MIC), in words [3] | S (sensitive) isolates, n (%) (C. krusei) | number of strains with 100% inhibition of biofilm formation [4] | minimum inhibitory concentration (MIC), in words (F. verticillioides) | MIC [5] | I (intermediate) isolates, n (%) (C. tropicalis) | S (sensitive) isolates, n (%) (C. tropicalis) | MIC [7] | minimal inhibitory concentrations (MIC) [8] | I (intermediate) isolates, n (%) (C. parapsilosis) | S (sensitive) isolates, n (%) (C. parapsilosis) | susceptibility [9] | further results |
| --- | --- | --- | --- | --- | --- | --- | --- | --- | --- | --- | --- | --- | --- | --- | --- | --- | --- | --- | --- | --- |
| C[C@@H]1[C@H](O)[C@@H](C)/C=C/C=C/C=C/C=C/C=C/C=C/C=C/[C@H](O[C@@H]2O[C@H](C)[C@@H](O)[C@H](N)[C@@H]2O)C[C@@H]2O[C@](O)(C[C@@H](O)C[C@@H](O)[C@H](O)CC[C@@H](O)C[C@@H](O)CC(=O)O[C@H]1C)C[C@H](O)[C@H]2C(=O)O [amphotericin B] | 0.9 µg/mL (≈ 0.974 µM) | 2 (2.8%) | 69 (97.2%) | 4 (2%) | 196 (97%) | 0 (0%) | 26 (100%) | higher | 7 (100%) | two | lower values | 0.12 to 2 µg/mL (≈ 0.13 to 2.16 µM) | 0 (0%) | 57 (100%) | 2 µg/mL (≈ 2.16 µM) | high minimal inhibitory concentrations | 1 (0.6) | 169 (98.3%) | susceptible | MIC ([1]; Candida, read-out: GM MIC): 0.13 µg/mL (≈ 0.141 µM); MIC Range [1]: 0.03 to 2 µg/mL; MIC Range (C. auris): 0.125 to 2 µg/mL; MIC (C. auris; Candidozyma auris, read-out: GM MIC): 0.43 µg/mL (≈ 0.465 µM); MIC50 (C. guilliermondii; Meyerozyma guilliermondii): 0.25 µg/mL (≈ 0.271 µM); MIC90 (C. guilliermondii; Meyerozyma guilliermondii): 0.25 µg/mL (≈ 0.271 µM); GM (C. guilliermondii): 0.177 µg/mL; MIC Range (C. guilliermondii): 0.06 to 0.5 µg/mL; GM (C. fermentati): 0.125 µg/mL; MIC Range (C. fermentati): 0.125 to 0.25 µg/mL; isolates within the wildtype distribution range (C. albicans [6]): 100% |
| C[C@@H](c1ncncc1F)[C@](O)(Cn1cncn1)c1ccc(F)cc1F [voriconazole] | 0.075 µg/mL (≈ 0.215 µM) | 2 (2.8%) | 62 (87.3%) | 0 (0%) | 200 (99%) | 0 (0%) | 26 (100%) | low | 7 (100%) | one | lower values | 0.06 to 8 µg/mL (≈ 0.172 to 22.9 µM) | 0 (0%) | 57 (100%) | 0.25 µg/mL (≈ 0.716 µM) | high minimal inhibitory concentrations | 1 (0.6%) | 170 (98.8%) | susceptible | MIC (McLDM-F5-CPR): 4 µg/mL (≈ 11.5 µM); R (resistant) isolates, n (%) (C. glabrata): S 62 (87.3%) I 2 (2.8%) R 7 (9.9%); R (resistant) isolates, n (%) (C. albicans [2]): S 200 (99%) I 0 (0%) R 2 (1%); reduction in MIC [10]: 2 fold; R (resistant) isolates, n (%) (Other species of Candida): S 26 (100%) I 0 (0%) R 0 (0%); MIC (McLDM-F5): 0.58 µg/mL (≈ 1.66 µM); MIC ([11]; strain from pleural fluid of an ICU patient, no mutations in cyp51A): 1 µg/mL (≈ 2.86 µM); MIC ([11]; two strains from a cystic fibrosis patient, TR34/L98H): 4 µg/mL (≈ 11.5 µM); MIC decrease ([12]; III.8 mrr1 strain vs parental): 2 fold; MIC ([12]; III.8 tac1a/tac1b strain): 1 µg/mL (≈ 2.86 µM); MIC decrease ([12]; III.8 tac1a/tac1b strain vs parental): 2 fold; MIC ([12]; III.8 tac1a/tac1b/mrr1 strain): 0.5 µg/mL (≈ 1.43 µM); MIC decrease ([12]; III.8 tac1a/tac1b/mrr1 strain vs parental): 4 fold; MIC ([12]; parental III.8 isolate): 2 µg/mL (≈ 5.73 µM); MIC (McLDM-F1-CPR): 0.29 µg/mL (≈ 0.83 µM); isolates in the area of technical uncertainty (ATU) [13]: 47%; R (resistant) isolates, n (%) (C. tropicalis): S 57 (100%) I 0 (0%) R 0 (0%); Non-wild type isolates (A. niger complex): 29%; R (resistant) isolates, n (%) (C. parapsilosis): S 170 (98.8%) I 1 (0.6%) R 1 (0.6%) |
